Laboratory results as given in patent US12098145B2 (Libra Therapeutics, Inc., priority 2022, dated 2024).

Biological target: T1, TRPML1 (Homo sapiens, UniProt Q9GZU1)
T1 construct: expressed in transfected cells; host or cells: HEK T-REx cells stably expressing GCaMP6f and TRPML1
Assay: Cellular TRPML1 assay (FLIPR, GCaMP6f calcium read-out)
Assay type: cell-based
Conditions: not given
Method in brief: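 Read-out is GCaMP6f fluorescence over 300 s after compound addition in Ca2+-free Tyrode's buffer, final DMSO 0.5%, on FLIPR Tetra. Cells are HEK T-REx stably co-expressing the indicator and TRPML1, plated 24 h earlier in Optimem + 0.5% FBS and pre-incubated ~10 min at room temperature.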

T1 sequence (Q9GZU1 whole entry): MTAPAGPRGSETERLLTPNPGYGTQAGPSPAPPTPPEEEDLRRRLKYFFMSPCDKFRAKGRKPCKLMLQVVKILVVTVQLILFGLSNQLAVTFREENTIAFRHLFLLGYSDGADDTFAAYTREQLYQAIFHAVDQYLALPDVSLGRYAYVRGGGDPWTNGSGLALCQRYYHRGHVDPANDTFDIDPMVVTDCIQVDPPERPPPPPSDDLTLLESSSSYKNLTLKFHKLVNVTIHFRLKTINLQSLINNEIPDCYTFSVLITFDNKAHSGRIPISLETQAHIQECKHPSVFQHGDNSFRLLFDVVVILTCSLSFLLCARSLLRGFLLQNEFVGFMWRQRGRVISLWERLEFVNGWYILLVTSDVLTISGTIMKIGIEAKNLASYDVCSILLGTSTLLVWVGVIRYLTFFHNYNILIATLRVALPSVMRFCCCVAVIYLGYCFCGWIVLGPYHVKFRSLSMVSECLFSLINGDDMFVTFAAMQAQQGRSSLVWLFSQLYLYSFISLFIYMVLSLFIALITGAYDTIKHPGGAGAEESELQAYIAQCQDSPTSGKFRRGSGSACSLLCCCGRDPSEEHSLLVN

Row | Compound | EC50 [nM]
1 | O=C(Nc1cc(F)c(N2CC3CC(C3)C2)c(F)c1)c1nc(N2CCC3(COC3)C2)oc1CC(F)(F)F [Example 208, N-(4-(3-azabicyclo[3.1.1]heptan-3-yl)-3,5-difluorophenyl)-2-(2-oxa-6-azaspiro[3.4]octan-6-yl)-5-(2,2,2-trifluoroethyl)oxazole-4-carboxamide] | 10 to 1000
2 | O=C(Nc1cc(F)c(N2CC3CC(C3)C2)c(F)c1)c1nc(N2CCCC2)oc1CC(F)(F)F [Example 209, N-(4-(3-azabicyclo[3.1.1]heptan-3-yl)-3,5-difluorophenyl)-2-(pyrrolidin-1-yl)-5-(2,2,2-trifluoroethyl)oxazole-4-carboxamide] | 10 to 1000
3 | O=C(Nc1cc(F)c(N2C3CCCC2CC3)c(F)c1)c1nc(N2CCCC2)oc1CC(F)(F)F [Example 210, N-(4-(8-azabicyclo[3.2.1]octan-8-yl)-3,5-difluorophenyl)-2-(pyrrolidin-1-yl)-5-(2,2,2-trifluoroethyl)oxazole-4-carboxamide] | 10 to 1000

Same assay, conditions: HEKT-REx/GCaMP6f/TRPML1 cells, FLIPR TETRA, kinetic response over 300 seconds; read-out: TRPML1 FLIPR pEC50 (converted)

Row | Compound | EC50 [nM]
4 | O=C(Nc1ccc(O[C@@H]2CC3C[C@@H]3C2)c(F)c1)c1nc(N2CC3OCOC3C2)oc1CC(F)(F)F (stereo partly drawn) [Example 153, N-(4-(cis-bicyclo[3.1.0]hexan-3-yloxy)-3-fluorophenyl)-2-(tetrahydro-5H-[1,3]dioxolo[4,5-c]pyrrol-5-yl)-5-(2,2,2-trifluoroethyl)oxazole-4-carboxamide] | 10 to 1000
5 | CCC1(CC)CN(c2nc(C(=O)Nc3ccc(OC4CCCOC4)c(F)c3)c(CC(F)(F)F)o2)C1 (stereo not shown) [Example 158, 2-(3,3-diethylazetidin-1-yl)-N-(3-fluoro-4-((tetrahydro-2H-pyran-3-yl)oxy)phenyl)-5-(2,2,2-trifluoroethyl)oxazole-4-carboxamide] | 10 to 1000
6 | CCC1(OC)CN(c2nc(C(=O)Nc3cc(F)c(OC4CCCOC4)c(F)c3)c(CC(F)(F)F)o2)C1 (stereo not shown) [Example 160, N-(3,5-difluoro-4-((tetrahydro-2H-pyran-3-yl)oxy)phenyl)-2-(3-ethyl-3-methoxyazetidin-1-yl)-5-(2,2,2-trifluoroethyl)oxazole-4-carboxamide] | 10 to 1000
7 | O=C(Nc1cc(F)c(O[C@@H]2C[C@@H]3C[C@@H]3C2)c(F)c1)c1nc(N2Cc3conc3C2)oc1CC(F)(F)F [Example 166, N-(4-(cis-bicyclo[3.1.0]hexan-3-yloxy)-3,5-difluorophenyl)-2-(4H-pyrrolo[3,4-c]isoxazol-5(6H)-yl)-5-(2,2,2-trifluoroethyl)oxazole-4-carboxamide] | 10 to 1000
8 | CCC1(OC)CN(c2nc(C(=O)Nc3cc(F)c(O[C@@H]4C[C@@H]5C[C@@H]5C4)c(F)c3)c(CC(F)(F)F)o2)C1 [Example 167, N-(4-(cis-bicyclo[3.1.0]hexan-3-yloxy)-3,5-difluorophenyl)-2-(3-ethyl-3-methoxyazetidin-1-yl)-5-(2,2,2-trifluoroethyl)oxazole-4-carboxamide] | 10 to 1000
9 | COCC1(COC)CN(c2nc(C(=O)Nc3cc(F)c(O[C@@H]4C[C@@H]5C[C@@H]5C4)c(F)c3)c(CC(F)(F)F)o2)C1 [Example 168, N-(4-(cis-bicyclo[3.1.0]hexan-3-yloxy)-3,5-difluorophenyl)-2-(3,3-bis(methoxymethyl)azetidin-1-yl)-5-(2,2,2-trifluoroethyl)oxazole-4-carboxamide] | 10 to 1000
10 | O=C(Nc1cc(F)c(OC2CC3CC(C3)C2)c(F)c1)c1nc(N2CCCC2)oc1CC(F)(F)F (stereo not shown) [Example 169, N-(4-(bicyclo[3.1.1]heptan-3-yloxy)-3,5-difluorophenyl)-2-(pyrrolidin-1-yl)-5-(2,2,2-trifluoroethyl)oxazole-4-carboxamide] | 10 to 1000
11 | O=C(Nc1cc(F)c(OC2CC3C[C@@H]3C2)c(F)c1)c1nc(N2CC3CC2C3)oc1CC(F)(F)F (stereo partly drawn) [Example 175, 2-(2-azabicyclo[2.1.1]hexan-2-yl)-N-(4-(cis-bicyclo[3.1.0]hexan-3-yloxy)-3,5-difluorophenyl)-5-(2,2,2-trifluoroethyl)oxazole-4-carboxamide] | 10 to 1000
12 | CC1CN(c2nc(C(=O)Nc3cc(F)c(OC4CC5C[C@H]5C4)c(F)c3)c(CC(F)(F)F)o2)CC(C)O1 (stereo partly drawn) [Example 176, N-(4-(cis-bicyclo[3.1.0]hexan-3-yloxy)-3,5-difluorophenyl)-2-(2,6-dimethylmorpholino)-5-(2,2,2-trifluoroethyl)oxazole-4-carboxamide] | 10000 to 100000
13 | O=C(Nc1cc(F)c(O[C@@H]2C[C@@H]3C[C@@H]3C2)c(F)c1)c1nc(N2CCOCC2)oc1CC(F)(F)F [Example 181, N-(4-(cis-bicyclo[3.1.0]hexan-3-yloxy)-3,5-difluorophenyl)-2-morpholino-5-(2,2,2-trifluoroethyl)oxazole-4-carboxamide] | 1000 to 10000
14 | O=C(Nc1cc(F)c(OC2CC3C[C@@H]3C2)c(F)c1)c1nc(N2CC3CC2CO3)oc1CC(F)(F)F (stereo partly drawn) [Example 182, 2-(2-oxa-5-azabicyclo[2.2.1]heptan-5-yl)-N-(4-(cis-bicyclo[3.1.0]hexan-3-yloxy)-3,5-difluorophenyl)-5-(2,2,2-trifluoroethyl)oxazole-4-carboxamide] | 1000 to 10000
15 | CC1(C)CN(c2nc(C(=O)Nc3cc(F)c(O[C@@H]4C[C@@H]5C[C@@H]5C4)c(F)c3)c(CC(F)(F)F)o2)CCO1 [Example 184, N-(4-(cis-bicyclo[3.1.0]hexan-3-yloxy)-3,5-difluorophenyl)-2-(2,2-dimethylmorpholino)-5-(2,2,2-trifluoroethyl)oxazole-4-carboxamide] | 1000 to 10000
16 | O=C(Nc1ccc(OC2CC3C[C@@H]3C2)c(F)c1)c1nc(N2CC3CCOC3C2)oc1CC(F)(F)F (stereo partly drawn) [Example 187, N-(4-(cis-bicyclo[3.1.0]hexan-3-yloxy)-3-fluorophenyl)-2-(hexahydro-5H-furo[2,3-c]pyrrol-5-yl)-5-(2,2,2-trifluoroethyl)oxazole-4-carboxamide] | 10 to 1000
17 | O=C(Nc1cc(F)c(O[C@@H]2C[C@@H]3C[C@@H]3C2)c(F)c1)c1nc(N2CC3(CCOCC3)C2)oc1CC(F)(F)F [Example 188, N-(4-(cis-bicyclo[3.1.0]hexan-3-yloxy)-3,5-difluorophenyl)-2-(7-oxa-2-azaspiro[3.5]nonan-2-yl)-5-(2,2,2-trifluoroethyl)oxazole-4-carboxamide] | 10 to 1000
18 | O=C(Nc1cc(F)c(O[C@@H]2C[C@@H]3C[C@@H]3C2)c(F)c1)c1nc(N2CC3(CCOC3)C2)oc1CC(F)(F)F [Example 189, N-(4-(cis-bicyclo[3.1.0]hexan-3-yloxy)-3,5-difluorophenyl)-2-(6-oxa-2-azaspiro[3.4]octan-2-yl)-5-(2,2,2-trifluoroethyl)oxazole-4-carboxamide] | 10 to 1000
19 | O=C(Nc1cc(F)c(N2C3CCCC2CC3)c(F)c1)c1nc(N2CCCOCC2)oc1CC(F)(F)F [Example 199, N-(4-(8-azabicyclo[3.2.1]octan-8-yl)-3,5-difluorophenyl)-2-(1,4-oxazepan-4-yl)-5-(2,2,2-trifluoroethyl)oxazole-4-carboxamide] | 1000 to 10000

Continued, values first:

Row | EC50 [nM] | Compound
20 | 1000 to 10000 | O=C(Nc1ccc(OCC2CC3CC3C2)c(F)c1)c1nc(N2CCCC2)oc1CC(F)(F)F (stereo not shown) [Example 190, N-(4-(bicyclo[3.1.0]hexan-3-ylmethoxy)-3-fluorophenyl)-2-(pyrrolidin-1-yl)-5-(2,2,2-trifluoroethyl)oxazole-4-carboxamide]
21 | 1000 to 10000 | CCC1(CC)CN(c2nc(C(=O)Nc3cnc(OC4CC5C[C@H]5C4)c(F)c3)c(CC(F)(F)F)o2)C1 (stereo partly drawn) [Example 191, N-(6-(cis-bicyclo[3.1.0]hexan-3-yloxy)-5-fluoropyridin-3-yl)-2-(3,3-diethylazetidin-1-yl)-5-(2,2,2-trifluoroethyl)oxazole-4-carboxamide]
22 | 1000 to 10000 | CCC1(CC)CN(c2nc(C(=O)Nc3cc(C)c(NC4CC5CC(C5)C4)c(F)c3)c(CC(F)(F)F)o2)C1 (stereo not shown) [Example 192, N-(4-(bicyclo[3.1.1]heptan-3-ylamino)-3-fluoro-5-methylphenyl)-2-(3,3-diethylazetidin-1-yl)-5-(2,2,2-trifluoroethyl)oxazole-4-carboxamide]
23 | 10000 to 100000 | Cc1cc(NC(=O)c2nc(N3CCCC3)oc2CC(F)(F)F)cc(F)c1NC1C2CCCC1CC2 (stereo not shown) [Example 194, N-(4-(bicyclo[3.2.1]octan-8-ylamino)-3-fluoro-5-methylphenyl)-2-(pyrrolidin-1-yl)-5-(2,2,2-trifluoroethyl)oxazole-4-carboxamide]
24 | 1000 to 10000 | O=C(Nc1cc(F)c(N2CCC3OCCC32)c(F)c1)c1nc(N2CCCC2)oc1CC(F)(F)F (stereo not shown) [Example 198, N-(3,5-difluoro-4-(hexahydro-4H-furo[3,2-b]pyrrol-4-yl)phenyl)-2-(pyrrolidin-1-yl)-5-(2,2,2-trifluoroethyl)oxazole-4-carboxamide]
25 | 10 to 1000 | CCC1(OC)CN(c2nc(C(=O)Nc3cc(F)c(N4CCC5CC5C4)c(F)c3)c(CC(F)(F)F)o2)C1 (stereo not shown) [Example 204, N-(4-(3-azabicyclo[4.1.0]heptan-3-yl)-3,5-difluorophenyl)-2-(3-ethyl-3-methoxyazetidin-1-yl)-5-(2,2,2-trifluoroethyl)oxazole-4-carboxamide]
26 | 1000 to 10000 | CCC1(OC)CN(c2nc(C(=O)Nc3cc(F)c(N4CCC5CCCC54)c(F)c3)c(CC(F)(F)F)o2)C1 (stereo not shown) [Example 205, N-(3,5-difluoro-4-(hexahydrocyclopenta[b]pyrrol-1(2H)-yl)phenyl)-2-(3-ethyl-3-methoxyazetidin-1-yl)-5-(2,2,2-trifluoroethyl)oxazole-4-carboxamide]
27 | 10 to 1000 | CCC1(CC)CN(c2nc(C(=O)Nc3cc(F)c(N4CCC5CC5C4)c(F)c3)c(CC(F)(F)F)o2)C1 (stereo not shown) [Example 211, N-(4-(3-azabicyclo[4.1.0]heptan-3-yl)-3,5-difluorophenyl)-2-(3,3-diethylazetidin-1-yl)-5-(2,2,2-trifluoroethyl)oxazole-4-carboxamide]
28 | 10 to 1000 | CCC1(CC)CN(c2nc(C(=O)Nc3ccc(N4CCC5CC5C4)c(F)c3)c(CC(F)(F)F)o2)C1 (stereo not shown) [Example 212, N-(4-(3-azabicyclo[4.1.0]heptan-3-yl)-3-fluorophenyl)-2-(3,3-diethylazetidin-1-yl)-5-(2,2,2-trifluoroethyl)oxazole-4-carboxamide]
